Assay [1] deals with Proto-oncogene tyrosine-protein kinase receptor Ret (Homo sapiens, UniProt P07949). The assay can be described thus: RET Kinase Assay. As to the method:
The experimental steps are as follows:(1) The test compound (the compound of the present disclosure, and compound 164 in WO2018017983A1 as a control) was dissolved in 100% DMSO to a final concentration of 10 mM.(2) 4 μL of the test compound solution prepared in step (1) was dissolved with 46 μL of 100% DMSO, and the solution obtained in this step was numbered as No. 2.(3) No. 2 solution was subjected to subsequent gradient dilution with a dilution factor of 5 times (i.e. 20 μL of 100% DMSO was added to 5 μL of the compound), a total of 9 gradients, numbered 3 to 11.Note: No. 2 was not used for the dilution in step (4).(Unless otherwise specified, the following steps need to be carried out on ice)(4) The buffer provided in the kit (Cisbio, Cat. No. 62TK0PEB) was used to continuously serially dilute the solutions numbered from 3 to 11 with a dilution factor of 20 times (that is, adding 19 μL of buffer to the solutions numbered from 3 to 11). […] After the incubation, the TF-FRET mode of the microplate reader (BMG Labtech, model: FLUOStar Omega) was adopted to measure the fluorescence intensity at an excitation wavelength of 304 nm and emission wavelengths of 615 nm and […] in each well. […]

Assay [2] addresses Vascular endothelial growth factor receptor 2 (Homo sapiens, UniProt P35968).

Each structure is given as a SMILES string.

What is called IC50 is the point on the concentration scale where inhibition reaches its midpoint. A high value points to a need for much substance.

Chain of Vascular endothelial growth factor receptor 2 (P35968 whole entry): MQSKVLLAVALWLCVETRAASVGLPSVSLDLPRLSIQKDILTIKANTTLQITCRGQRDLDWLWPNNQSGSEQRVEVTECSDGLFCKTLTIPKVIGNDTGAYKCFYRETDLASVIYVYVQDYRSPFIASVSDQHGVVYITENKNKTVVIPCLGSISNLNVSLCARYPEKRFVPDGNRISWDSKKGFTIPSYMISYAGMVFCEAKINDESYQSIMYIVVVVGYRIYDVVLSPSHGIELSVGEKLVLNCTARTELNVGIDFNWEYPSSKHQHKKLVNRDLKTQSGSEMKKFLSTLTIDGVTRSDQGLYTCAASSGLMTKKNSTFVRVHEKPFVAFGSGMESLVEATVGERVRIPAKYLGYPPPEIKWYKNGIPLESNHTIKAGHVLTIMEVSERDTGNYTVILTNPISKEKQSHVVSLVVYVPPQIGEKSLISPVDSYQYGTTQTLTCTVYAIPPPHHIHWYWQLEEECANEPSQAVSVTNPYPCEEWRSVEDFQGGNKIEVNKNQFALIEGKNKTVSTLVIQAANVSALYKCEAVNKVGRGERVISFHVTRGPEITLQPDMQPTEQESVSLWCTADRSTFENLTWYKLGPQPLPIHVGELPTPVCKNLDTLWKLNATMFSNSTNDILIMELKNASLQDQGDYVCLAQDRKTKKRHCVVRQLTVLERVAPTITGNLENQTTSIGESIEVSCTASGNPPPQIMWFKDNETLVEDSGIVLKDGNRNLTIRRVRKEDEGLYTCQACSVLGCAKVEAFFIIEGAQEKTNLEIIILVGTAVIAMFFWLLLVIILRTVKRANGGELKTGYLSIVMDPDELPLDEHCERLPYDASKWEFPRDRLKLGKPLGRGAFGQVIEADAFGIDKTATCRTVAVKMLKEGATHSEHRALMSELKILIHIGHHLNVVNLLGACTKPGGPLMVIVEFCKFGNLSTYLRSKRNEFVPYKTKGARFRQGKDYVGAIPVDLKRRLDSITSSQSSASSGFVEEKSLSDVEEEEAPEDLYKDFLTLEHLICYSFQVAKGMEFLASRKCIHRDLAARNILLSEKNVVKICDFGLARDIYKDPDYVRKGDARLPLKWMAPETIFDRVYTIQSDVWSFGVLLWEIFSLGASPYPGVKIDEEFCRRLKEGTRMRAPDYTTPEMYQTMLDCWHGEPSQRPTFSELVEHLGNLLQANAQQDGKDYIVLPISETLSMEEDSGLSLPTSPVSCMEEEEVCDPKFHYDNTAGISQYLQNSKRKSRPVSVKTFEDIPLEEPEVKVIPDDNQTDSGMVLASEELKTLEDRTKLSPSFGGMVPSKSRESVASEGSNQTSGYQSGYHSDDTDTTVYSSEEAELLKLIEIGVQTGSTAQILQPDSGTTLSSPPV
Chain of Proto-oncogene tyrosine-protein kinase receptor Ret (P07949 whole entry): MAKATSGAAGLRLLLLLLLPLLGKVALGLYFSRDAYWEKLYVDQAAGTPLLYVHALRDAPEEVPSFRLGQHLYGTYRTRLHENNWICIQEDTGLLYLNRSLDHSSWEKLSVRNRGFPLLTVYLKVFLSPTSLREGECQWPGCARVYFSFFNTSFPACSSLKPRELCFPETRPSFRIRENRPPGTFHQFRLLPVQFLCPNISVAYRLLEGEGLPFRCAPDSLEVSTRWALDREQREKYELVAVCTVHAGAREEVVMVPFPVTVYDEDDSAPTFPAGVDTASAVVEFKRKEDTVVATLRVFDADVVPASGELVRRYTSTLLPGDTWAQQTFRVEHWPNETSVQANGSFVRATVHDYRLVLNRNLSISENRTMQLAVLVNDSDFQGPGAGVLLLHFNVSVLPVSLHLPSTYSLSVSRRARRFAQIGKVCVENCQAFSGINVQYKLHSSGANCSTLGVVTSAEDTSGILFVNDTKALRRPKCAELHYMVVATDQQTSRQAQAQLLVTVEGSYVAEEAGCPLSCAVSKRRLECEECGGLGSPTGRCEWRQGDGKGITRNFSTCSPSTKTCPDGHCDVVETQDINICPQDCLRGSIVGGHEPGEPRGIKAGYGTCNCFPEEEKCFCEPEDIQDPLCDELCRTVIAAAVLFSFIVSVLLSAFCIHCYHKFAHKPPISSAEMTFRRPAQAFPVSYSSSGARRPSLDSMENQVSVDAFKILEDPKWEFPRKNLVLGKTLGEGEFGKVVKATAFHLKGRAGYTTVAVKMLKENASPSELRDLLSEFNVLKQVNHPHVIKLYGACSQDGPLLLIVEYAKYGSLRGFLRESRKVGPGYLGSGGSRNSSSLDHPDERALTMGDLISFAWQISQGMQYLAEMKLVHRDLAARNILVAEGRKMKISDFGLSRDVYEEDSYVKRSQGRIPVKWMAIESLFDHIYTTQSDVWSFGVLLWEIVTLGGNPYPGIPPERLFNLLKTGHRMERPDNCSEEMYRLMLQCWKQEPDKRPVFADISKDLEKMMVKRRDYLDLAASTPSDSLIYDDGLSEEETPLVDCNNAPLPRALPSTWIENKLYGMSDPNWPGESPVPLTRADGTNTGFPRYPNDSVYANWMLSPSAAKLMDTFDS

For the compound `Cc1cc(Nc2cc(C)[nH]n2)nc(N2CC3CCC(C2)N3C(=O)c2ccc(-n3cc(Cl)cn3)nc2)n1` [US12234222, Compound I-8], the IC50 worked out at 1.7 nM in assay [1] and 107 nM in assay [2].

Turning to `Cc1cc(Nc2ccnc(N3CC4CCC(C3)N4C(=O)c3ccc(-n4cc(F)cn4)nn3)n2)n[nH]1` [US12234222, Compound I-14], the IC50 in assay [1] was determined as 3.9 nM; in assay [2], 141 nM.

These data come from BindingDB's records for patent US12234222 (Zhejiang Hisun Pharmaceutical, 2025).
